According to US20180284095A1, “BIOMARKERS ASSOCIATED WITH LSD1 INHIBITORS AND USES THEREOF” (Oryzon Genomics, S.A., priority 2015, published 2018):

Key:
Assay type in all cases: in vivo, mouse
SAMP8 mice = test: Novel Object Recognition Test (NORT) in SAMP8 mice
Excerpt: The Senescence Accelerated Mouse Prone 8 (SAMP8) strain is a non-transgenic model for neurodegeneration reminiscent of Alzheimer's disease (T Takeda, Neurobiol Aging 1999, 20(2):105-10). Memory deficits appear around 5 months of age in SAMP8 mice and can be reliably assessed using the Novel Object Recognition Test (NORT).
Males and females were separated in two different cohorts and all treatments started at 5 months of age. […] Based on the results obtained in the first experiment, doses were adjusted in a second experiment using male mice.
The dose was calculated according to the animal water consumption average par cage and adjusted weekly. The test compound (or vehicle) was available for 5 days followed by a 2 day clearance in a weekly period.
NORT is used to assess animal's behavior when it is exposed to a novel and a familiar object (M Antunes and G Biala, Cogn Process. 2012, 13(2): 93-110). […]
The NORT test was performed after 2 (n=16/group) and repeated at 4 (n=10/group) months of treatment (between […] and 6:30 pm). […] During this second trial, objects A and B were placed in the maze, and the time that the animal explored the new object (tn) and the old object (to) were video-recorded. […]
Statistical analysis was performed using the GraphPad Prism 6.0 software package. NORT data from SAMP8 mice was analyzed by one-way ANOVA with treatment as the main factor. […]

TUBB3 = test: Microarray gene expression, hippocampus of SAMP8 mice (Example 3), housekeeping gene; conditions: SAMP8 female pool
Protocol: (§1) Total RNA was extracted from samples using the RNeasy extraction kit (Qiagen). The quality and concentration of the RNA was analyzed using the Agilent 2100 bioanalyzer and NanoDrop™ ND-1000 (Thermo Scientific). Samples with RNA integrity number (RIN)<6.0 were discarded. Total RNA (0.5 μg) amplification and labelling with Cy3 or Cy5 was carried out using the Eberwein mRNA amplification procedure (Van Gelder et al, Proc Natl Acad Sci USA 1990, 87:1663-1667) employing the MessageAmp™ aRNA amplification kit from Ambion (Applied Biosystems) following the manufacturer's instructions with minor modifications. As hybridization controls, plant mRNAs were transcribed from a plasmid containing the Zea mays Xet (xyloglucan endo-transglycosylase) cDNA and from a plasmid containing the Zea mays Zmmyb42 cDNA, independently prepared Cy3 and Cy5 labelled aRNA from these two RNAs using the Eberwein mRNA amplification procedure (as disclosed in Cerdà et al, Gen Comp Endocrinol 2008, 156:470-481).
(§2) The Cy3- and Cy5-labelled cRNAs and spikes were combined and hybridized to the microarray described in Example 2.6 for 17 h at 60° C. using Agilent's gaskets G2534-60002, G2534A hybridization chambers and DNA Hybridization Oven G2545A, according to the manufacturer's instructions. More specifically, equal amounts of Cy3 and Cy5 labeled Xet aRNA as well as equal amounts of Cy3 and Cy5 labeled Zmmyb42 aRNA were spiked into each mixture hybridized to the array. Arrays were washed and raw data were obtained using Agilent's DNA Microarray Scanner G2505B and Feature Extraction software (v10.1). The raw fluorescence intensity data were processed using applicant's proprietary software, and consists in the following operations:
(§3) Data normalization was carried out by an improved version of the nonlinear Q-splines normalization method (Workman et al., Genome Biol 2002, 3(9):research0048.1-0048.16). Normalization results were presented graphically as MA plots, as first described by Dudoit et al (Dudoit et al, Statistica Sinica, 2002, 12:111-139). Each point corresponds to a probe of the DNA array. M values (vertical axis) are the log-differential expression ratios. A values (horizontal axis) are the log-intensities of the spots. M and A are calculated from the Cy5 and Cy3 intensity values as of each spot. The DNA Array data is normalized using an improved version of non-linear Q-Splines normalization described by Workman et al., Genome Biol 2002, 3(9):research0048.1-0048.16. This process is useful to correct the deviation of the M values from the statistical assumption that most of the spots have M=0 in MA plots. The method allows the adjustment of all M values to form a cloud centered at M=0 in all intensity ranges. The data used to calculate the normalization fitting curve is the totality of the raw measurement dataset, excluding the signals for the probes for the spiked-in plant RNA controls and negative controls. In order to be able to normalize properly the data among all the experiments, the probe-set must include an important group of genes that should have no change (M=0) in the experiment. The normalization function is then applied to all the data, including controls.
(§4) Normalized and log-transformed data were used to calculate log 2 (sample/control) and Fold Change (FC) values. No background subtraction was applied to the signal intensity values during data processing, permitting robust selection of differentially expressed genes with low expression levels at the cost of potential sub-estimation of change when intensity levels are close to the array background level.
(§5) The technical replicate analysis is the statistical processing of the microarray data. Replicates were calculated to measure oligo replicates on an array or between replicates of experiments on different arrays (i.e. hybridization of the same sample). […]

TUBB2C = test: as above; conditions: SAMP8 female pool
Protocol: as §1, §2, §3, §4, §5

Substance: (−) 5-((((trans)-2-(4-(benzyloxy)phenyl)cyclopropyl)amino)methyl)-1,3,4-oxadiazol-2-amine [Compound 1]
- memory loss as assessed by NORT (SAMP8 mice; SAMP8 males and females, after 2 m and 4 m of treatment): completely prevents memory loss
- memory deficits (NORT), medium- and long-term memory (SAMP8 mice; SAMP8 males, 0.32 and 0.96 mg/kg/day in drinking water, 2 and 4 months): rescued the memory deficits
- Hybridization signal sample_Cy5 TUBB3 (TUBB3; HD 3.2 mg/kg/day): 3168.4
- log2 (sample/control) TUBB3 (TUBB3; HD 3.2 mg/kg/day vs SAMP8 VEH): 0.05769
- Hybridization signal sample_Cy5 TUBB3 (TUBB3; LD 0.96 mg/kg/day): 3002.3
- log2 (sample/control) TUBB3 (TUBB3; LD 0.96 mg/kg/day vs SAMP8 VEH): 0.04498
- Hybridization signal sample_Cy5 TUBB2C (TUBB2C; HD 3.2 mg/kg/day): 9173
- log2 (sample/control) TUBB2C (TUBB2C; HD 3.2 mg/kg/day vs SAMP8 VEH): 0.1327
- Hybridization signal sample_Cy5 TUBB2C (TUBB2C; LD 0.96 mg/kg/day): 9392.47
- log2 (sample/control) TUBB2C (TUBB2C; LD 0.96 mg/kg/day vs SAMP8 VEH): 0.1199
